This note sets out measurements from patent publication US12617757B2, “Compounds and modules for inhibition of pre-miR-21 and their use in treatment of certain cancers” (University of Florida Research Foundation, Incorporated, priority 2019, dated 2026).

One experiment relates to pre-miR-21. Description: Cellular Chem-CLIP / C-Chem-CLIP in MDA-MB-231 cells. The class given is cell-based, human. The method, then: Cellular Chem-CLIP/C-Chem-CLIP. The MDA-MB-231 cells were grown to ˜70% confluency as monolayers in 60 mm dishes. The cells were treated with Chem-CLIP compounds (8 or 9) and/or non-cross-linking competitors (1 or 2) for 48 h. Total RNA was extracted using a Quick-RNA MiniPrep Kit (Zymo Research) per the manufacturer's protocol. Approximately 20-30 μg of total RNA was then incubated with 100 μL of streptavidin-agarose beads (Sigma-Aldrich) and shaken for 1 h at room temperature. The solution was removed beads washed six times with 1×PBS. The RNA bound to beads was released, purified, and used for RT-qPCR as previously described^23. Relative fold enrichment of the measured RNA before and after pulldown was measured using equation 3 (Eq. 3): Relative Fold Enrichment=2^−(ΔC^t^before pulldown−ΔC^t^after pulldown) (Eq. 3)
where “ΔCt before pulldown” is the difference between the Ct values for the RNA of interest and a housekeeping gene in total RNA from cells and “ΔCt after pulldown” is the difference between the Ct values for the RNA of interest and the same housekeeping gene in RNA after pulldown.

Another experiment relates to pre-miR-21 WT. Description: Microscale thermophoresis (MST) binding to pre-miR-21 WT. On the procedure:
Microscale Thermophoresis (MST) Binding Measurements. MST fluorescent measurements were performed on a Monolith NT.115 system (NanoTemper Technologies) using the fluorescence of a miR-21 hairpin (A+U Bulge): (5′ Cy5-[…]-3′) (SEQ ID NO: 1) or a miR-21 base paired control (5′ Cy5-[…]-3′) (SEQ ID NO: 2) which were purchased from IDT with RNase-free HPLC purification and used without further purification. The RNA (5 nM) was diluted in 1×MST Buffer (8 mM Na2HPO4, 190 mM NaCl, 1 mM EDTA, and 0.05% (v/v) Tween-20) and folded by heating at 60° C. for 5 min, and slowly cooling to room temperature. Compounds 1 and 2 were diluted in 1×MST Buffer, followed by 1:3 dilutions in 1×MST Buffer containing 5 nM RNA. […] Fluorescence measurements (Ex: 605-645 nm, Em: 680-685 nm) were performed at 10% LED and 80% MST power, with a Laser-On time of 30 s and Laser-Off time of 5 s. The data were analyzed by thermophoresis analysis and fitted by the quadratic binding equation in MST analysis software (NanoTemper Technologies). Dissociation constants were then determined by curve fitting using a single-site model. Normalized MST signal was calculated by normalizing the fluorescent signals using the MST data of 1 binding to pre-miR-21 WT with the lowest signal as 0 and the highest fluorescent signal as 1.
For orientation: In MST a laser heats a spot of the sample, and binding alters the fluorescence response.

On to `CCCN(CC(=O)N(CCC)CC(=O)N(CCC)CC(=O)N(CC(N)=O)Cc1cn(CCCNC(=O)CCCOc2ccc(-c3nc4cc(-c5ccc(N6CCN(C)CC6)cc5)ccc4[nH]3)cc2)nn1)C(=O)CNCc1cn(CCCNC(=O)CCCOc2ccc(-c3nc4cc(-c5ccc(N6CCN(C)CC6)cc5)ccc4[nH]3)cc2)nn1` [Compound 2], for which the “potency in occupying pre-miR-21 in cells versus Formula 1 (C-Chem-CLIP)” value in the experiment with pre-miR-21 (MDA-MB-231) came to 20 fold. Besides, the “competition of Chem-CLIP enrichment (C-Chem-CLIP)” value in the experiment on pre-miR-21 (MDA-MB-231, versus probe 8) is given as “enrichment is depleted”. Also, the “enhancement of pre-miR-21 binding over the compound of Formula 1” value with pre-miR-21 WT turned out to be 20 fold.
